Source: patent US12589101B2, “Cyclodextrin protein drug conjugates” (Regeneron Pharmaceuticals, Inc., priority 2017, dated 2026)
Values after ≈ are worked out from the molar mass of the structure shown. Like-named read-outs stand apart in the source and are kept apart here.

Columns and labels:
[1] = Solubility of linker-payloads (LC-MS standard curve, saturated solution); format: physicochemical; conditions: for solubility at 10 min: thermodynamic from solid
Protocol: The following test assays the solubility of the linker-payloads with a cyclodextrin moiety and the linker-payloads without a cyclodextrin moiety.
The test compounds were dissolved in DMSO to build a standard curve using LC-MS method A or B. The test sample was dissolved in water and sonicated for 10 minutes, and then centrifuged. The upper clear solution was analyzed using the same method A or B and the solubility was calculated based on its peak area.
Detailed test procedures were as follows: • 1. […] 0.05 mg of compound was suspended in water (1 mL) and sonicated for 10 minutes. After centrifugation, the clear solution above was collected to provide the saturated sample solution. • 3. All the standard solutions A, B, C, D, E and sample solution were analyzed by LCMS (using the same method and same injection volume) to obtain the peak areas. • 4. Calculate the standard curve according to the data of A-D (X=concentration, Y=peak areas). • 5. Calculate to obtain the concentration of saturated sample solution according to the functions obtained above.

[2] = target: Cathepsin B (Homo sapiens, UniProt P07858); assay: Cathepsin B cleavage rate of linker-payloads (Example 66); format: biochemical; conditions: for CapB (%) / capB: Cathepsin B cleavage rate; for CapB (%): pH 5.0, 37° C.; for capB: Table 8A
Protocol: Step 1: Preparation of Cathepsin B buffer: 0.1 M NaOAc/0.01M DTT (pH5.0) Dissolve 8.3 g/L NaOAc, 1.54 g/L DTT in deionized water. Adjust pH to 5.0 with HCl/sodium hydroxide.
Step 2: Test Cleavage Rate
• 1. Prepare 25 μM of testing sample: To a 2-mL-tube was added 0.5 mg of testing sample, followed by the addition of 0.2 mL of DMSO. The solution was added dropwise into 0.8 mL of 0.1 M NaOAc/0.01 M DTT buffer. The obtained mixtures were sonicated for 5 minutes to obtain clear and colorless solutions. The pH value of the solution was around 5 according to pH test strip. • 2. Preheat assay buffer: 0.1 M NaOAc/0.01 M DTT (pH 5.0) • 3. Spiking solutions for test compounds: 25 μM Spiking solutions for test compounds: Add 2 μL of 5 mM stock solution into 398 μL of 0.1 M NaOAc/0.01 M DTT buffer (pH 5.0). • 4. Prepare 0.47 μg/μL Cathepsin B in 50 mM NaOAc/1 mM EDTA (pH 5.0). Put on ice. • 5. Without CA074 samples: Add 4 μL of 0.47 μg/μL Cathepsin B into 196 μL of 25 μM Spiking solutions (from step 2), incubate the tubes at 37° C. • 6. With CA074 samples: Add 4 μL of 0.47 μg/μL Cathepsin B with 4 μL of 10 mM Inhibitor (CA074) into 196 μL of 25 μM Spiking solutions (from step 2), incubate the tubes. • 7. After quenching, shake the plate and centrifuge them at 14000 rpm. • 8. Transfer 50 μL of the supernatant from each well into a 96-well sample plate containing 50 μL of ultra pure water (Millipore, ZMQS50F01) for LC/MS analysis. Step 3: Test reference compounds: • 9. Preheat assay buffer: 100 mM Na/K phosphate, pH 6.0, with 1.33 mM EDTA and 2 mM DTT. • 10. Prepare 0.024 μg/μL Cathepsin B: Add 1 μL of 0.47 μg/μL Cathepsin B stock into 19 μL of assay buffer (from step 11). • 11. Add 2 μL of 0.024 μg/μL Cathepsin B (from step 12) to a opaque 96-well plate. • 12. Add 96 μL of assay buffer to each sample. • 13. Add 2 μL of the 10 mM substrate Z-RR-MNA (200 μM final concentration). • 14. For negative control (With inhibitor), add 2 μL of 10 mM Inhibitor (CA074): Immediately read the samples in a kinetic mode at excitation of 340 nm/emission of 425 nm (Read the plate every 30 Second for 3 min). Step 4: Stability of Cathepsin B in incubation samples: • 15. Take 5 μL of incubation samples into 93 μL of assay buffer (from step 11), and then add 2 μL of 10 mM substrate (Z-RR-MNA). • 16. Incubate the samples at 37° C. for 2 min. • 17. Read the samples at excitation of 340 nm/emission of 425 nm.

[3] = water, aqueous, read-out: Aq. Solubility

SMILES	solubility at 10 min [1, 3] [mg/mL]	CapB (%) [2]	solubility at 10 min ([1]; water, Solubility) [mg/mL]	capB [2] [%]	further results
CC[C@H](C)[C@@H]([C@@H](CC(=O)N1CCC[C@H]1[C@H](OC)[C@@H](C)C(=O)N[C@H](C)[C@@H](O)c1ccccc1)OC)N(C)C(=O)[C@@H](NC(=O)[C@H](C(C)C)N(C)C(=O)OCc1ccc(NC(=O)[C@H](CCCNC(N)=O)NC(=O)[C@@H](NC(=O)[C@@H](CCCCNC(=O)COC2CCCCCc3c2nnn3CC2OC3OC4C(CO)OC(OC5C(CO)OC(OC6C(CO)OC(OC7C(CO)OC(OC8C(CO)OC(OC2C(O)C3O)C(O)C8O)C(O)C7O)C(O)C6O)C(O)C5O)C(O)C4O)NC(=O)CCOCCOCCOCCOCCNC(=O)CCC(=O)N2Cc3ccccc3C#Cc3ccccc32)C(C)C)cc1)C(C)C (stereo partly drawn) [Ex41]	0.14 (≈ 47.5 µM)	% % (70< % % ≤80 CapB (%))	–	–	solubility at 10 min ([1]; water, water, read-out: Solubility): 0.25 mg/mL (≈ 84.8 µM)
CCC[C@@H]1O[C@@H]2C[C@H]3[C@@H]4CCC5=CC(=O)C=C[C@]5(C)[C@H]4[C@@H](O)C[C@]3(C)[C@]2(C(=O)COc2ccc(NC(=O)[C@H](C)NC(=O)[C@@H](NC(=O)[C@@H](CCCCNC(=O)COC3CCCCCc4c3nnn4CC3OC4OC5C(CO)OC(OC6C(CO)OC(OC7C(CO)OC(OC8C(CO)OC(OC9C(CO)OC(OC3C(O)C4O)C(O)C9O)C(O)C8O)C(O)C7O)C(O)C6O)C(O)C5O)NC(=O)CCOCCOCCOCCOCCNC(=O)CCC(=O)N3Cc4ccccc4C#Cc4ccccc43)C(C)C)cc2)O1 (stereo partly drawn) [Ex47]	< 0.1	% (% ≤50 CapB (%))	–	–	aqueous solubility (in words) ([1]; water): below detectable levels; Cathepsin B cleavage rate [2]: 14%
CCCC1O[C@@H]2C[C@H]3[C@@H]4C[C@H](F)C5=CC(=O)C=C[C@]5(C)[C@@]4(F)[C@@H](O)C[C@]3(C)[C@]2(C(=O)COc2ccc(NC(=O)OCc3ccc(NC(=O)[C@H](CCCNC(N)=O)NC(=O)[C@@H](NC(=O)CCOCCOCCOCCOCCNC(=O)CCC(=O)N4Cc5ccccc5C#Cc5ccccc54)C(C)C)cc3)cc2)O1 (stereo partly drawn) [Ex61, DIBAC-suc-PEG4-vcPAB-1i]	–	% (% ≤50 CapB (%))	< 0.01	<5	Solubility ([1]; 10 min): 0.01 mg/ mL mg/mL; solubility at 10 min ([1]; water, Aq. Solubility (mg/mL)): 0.01 mg/mL (≈ 6.68 µM)
CC(C)[C@H](NC(=O)[C@@H](CCCCNC(=O)CCOCCOCCOCCOCCNC(=O)COC1CCCCCc2nnn(CC3OC4OC5C(CO)OC(OC6C(CO)OC(OC7C(CO)OC(OC8C(CO)OC(OC9C(CO)OC(OC3C(O)C4O)C(O)C9O)C(O)C8O)C(O)C7O)C(O)C6O)C(O)C5O)c21)NC(=O)CCOCCOCCOCCOCCNC(=O)CCC(=O)N1Cc2ccccc2C#Cc2ccccc21)C(=O)N[C@@H](CCCNC(N)=O)C(=O)Nc1ccc(COC(=O)NCCOc2ccc3c(c2)[C@@]2(C)CCC[C@](C)(C(=O)NC(=O)[C@@]4(C)CCC[C@]5(C)c6cc(O)ccc6CC[C@@H]45)[C@@H]2CC3)cc1 (stereo partly drawn) [Ex50]	–	% (% ≤50 CapB (%))	0.33 (≈ 108 µM)	–	–
CC(C)[C@H](NC(=O)[C@@H](CCCCNC(=O)COC1CCCCCc2c1nnn2CC1OC2OC3C(CO)OC(OC4C(CO)OC(OC5C(CO)OC(OC6C(CO)OC(OC7C(CO)OC(OC8C(CO)OC(OC9C(CO)OC(OC1C(O)C2O)C(O)C9O)C(O)C8O)C(O)C7O)C(O)C6O)C(O)C5O)C(O)C4O)C(O)C3O)NC(=O)CCOCCOCCOCCOCCNC(=O)CCC(=O)N1Cc2ccccc2C#Cc2ccccc21)C(=O)N[C@@H](C)C(=O)Nc1ccc2c(c1)[C@@]1(C)CCC[C@](C)(C(=O)NC(=O)[C@@]3(C)CCC[C@]4(C)c5cc(O)ccc5CC[C@@H]34)[C@@H]1CC2 (stereo partly drawn) [Ex57, DIBAC-suc-PEG4-D-Lys(COT-CD)-vcPAB-1d]	–	–	–	8.3	–
